How the values were obtained:
Format in all cases: biochemical
μ-opioid receptors [1] = molecular target: T1, μ-opioid receptors (Homo sapiens (Human), UniProt P35372); test: μ-opioid receptor [35S]GTPγS functional assay, HEK-293 cells; settings: μ GTP; for EC50: read-out: Activity Response μ EC50 (nM) [mean ± SEM]; for Emax: relative to DAMGO, read-out: Activity Response μ Emax (%)
Procedure: (§1) [^35S]GTPγS functional assays were conducted using freshly thawed μ-receptor membranes prepared from a cell line expressing recombinant μ opioid receptor in a HEK-293, CHO or U-2 OS cell background or purchased from a commercial source (Perkin Elmer, Shelton, Conn.; or DiscovRx, Fremont, Calif.). Assay reactions were prepared by sequentially adding the following reagents to binding buffer (100 mM NaCl, 10 mM MgCl2, 20 mM HEPES, pH 7.4) on ice (final concentrations indicated): membrane protein (0.026 mg/mL), saponin ([…]), GDP ([…]) and [^35S]GTPγS (0.20 nM; Perkin Elmer, Shelton, Conn.). The prepared membrane solution (190 μl/well) was transferred to 96-shallow well polypropylene plates containing 10 μl of 20× concentrated stock solutions of the agonist [D-Ala^2, N-methyl-Phe^4 Gly-ol^5]-enkephalin (DAMGO) prepared in dimethyl sulfoxide (DMSO). Plates were incubated for 30 min at about 25° C. with shaking. Reactions were terminated by rapid filtration onto 96-well Unifilter GF/B filter plates (Perkin Elmer, Shelton, Conn.) using a 96-well tissue harvester (Perkin Elmer, Shelton, Conn.) followed by three filtration washes with 200 μl of ice-cold wash buffer (10 mM NaH2PO4, 10 mM Na2HPO4, pH 7.4). Filter plates were subsequently dried at 50° C. for 2-3 hours. BetaScint scintillation cocktail (Perkin Elmer, Shelton, Conn.) was added (50 μl/well) and plates were counted using a Packard Top-Count for 1 min/well. Data were analyzed using the sigmoidal dose-response curve fitting functions in GraphPad PRISM v. 3.0, or an in-house function for non-linear, sigmoidal dose-response curve-fitting.
(§2) μ GTP EC50 is the concentration of a compound providing 50% of the maximal response for the compound at a μ-opioid receptor.
(§3) μ GTP Emax (%) is the maximal effect elicited by a compound relative to the effect elicited by DAMGO, a standard μ agonist. Generally, the μ GTP Emax (%) value measures the efficacy of a compound to treat or prevent pain or other Conditions.
(§4) The following tables provide results on the efficacy of binding and activity response of exemplified Compounds of the Invention at the μ- and κ-opioid receptors. In TABLE 3, binding affinity of certain Compounds of the Invention to the μ- and κ-opioid receptors was determined as described above. In TABLE 4, activity response of certain Compounds of the Invention to the μ- and κ-opioid receptors was determined as described above for functional assays using HEK-293 cells. In TABLE 5, activity response of certain Compounds of the Invention to the μ- and κ-opioid receptors was determined as described above using U-2 OS cells.

κ opioid receptor [2] = molecular target: T2, κ opioid receptor (Homo sapiens (Human), UniProt P41145); test: κ-opioid receptor [35S]GTPγS functional assay, HEK-293 cells; settings: κ GTP; for EC50: read-out: Activity Response κ EC50 (nM) [mean ± SEM]; for Emax: relative to U69,593, read-out: Activity Response κ Emax (%)
Procedure: (§5) Membranes from HEK-293 cells, CHO or U-2 OS cells expressing the recombinant human kappa opioid receptor (κ) were prepared by lysing cells in ice cold hypotonic buffer (2.5 mM MgCl2, 50 mM HEPES, pH 7.4) (10 mL/10 cm dish) followed by homogenization with a tissue grinder/Teflon pestle. Membranes were collected by centrifugation at 30,000×g for 15 min at 4° C. and pellets were resuspended in hypotonic buffer to a final concentration of 1-3 mg/mL. Protein concentrations were determined using the BioRad protein assay reagent with bovine serum albumen as standard. Aliquots of κ receptor membranes were stored at −80° C.
(§6) Functional [^35S]GTPγS binding assays were conducted as follows. κ opioid receptor membrane solution was prepared by sequentially adding final concentrations of 0.026 μg/μl κ membrane protein (in-house), 10 μg/mL saponin, 3 μM GDP and 0.20 nM [^35S]GTPγS to binding buffer (100 mM NaCl, 10 mM MgCl2, 20 mM HEPES, pH 7.4) on ice. The prepared membrane solution (190 μl/well) was transferred to 96-shallow well polypropylene plates containing 10 μl of 20× concentrated stock solutions of agonist prepared in DMSO. Plates were incubated for 30 min at a temperature of about 25° C. with shaking. Reactions were terminated by rapid filtration onto 96-well Unifilter GF/B filter plates (Perkin Elmer, Shelton, Conn.) using a 96-well tissue harvester (Packard) and followed by three filtration washes with 200 μl ice-cold binding buffer (10 mM NaH2PO4, 10 mM Na2HPO4, pH 7.4). Filter plates were subsequently dried at 50° C. for 2-3 hours. Fifty μl/well scintillation cocktail (Perkin Elmer, Shelton, Conn.) was added and plates were counted in a Packard Top-Count for 1 min/well.
(§7) κ GTP EC50 is the concentration of a compound providing 50% of the maximal response for the compound at a κ receptor.
(§8) κ GTP Emax (%) is the maximal effect elicited by a compound relative to the effect elicited by U69,593.
as §4, with “In” for “The following tables provide results on the efficacy of binding and activity response of exemplified Compounds of the Invention at the μ- and κ-opioid receptors. In”

μ-opioid receptors [3] = molecular target: T1, μ-opioid receptors; test: μ-opioid receptor [35S]GTPγS functional assay, U-2 OS cells; settings: μ GTP; for EC50: read-out: Activity Response μ EC50 (nM) [mean ± SEM]; for Emax: read-out: Activity Response μ Emax (%)
Procedure: as §1, §2, §3, §4

κ opioid receptor [4] = molecular target: T2, κ opioid receptor; test: κ-opioid receptor [35S]GTPγS functional assay, U-2 OS cells; settings: κ GTP; for EC50: read-out: Activity Response κ EC50 (nM) [mean ± SEM]; for Emax: relative to U69,593, read-out: Activity Response κ Emax (%)
Procedure: as §5, §6, §7, §8
as §4, with “In” for “The following tables provide results on the efficacy of binding and activity response of exemplified Compounds of the Invention at the μ- and κ-opioid receptors. In”

Compound | EC50 (μ-opioid receptors [1]) [nM] | Emax (μ-opioid receptors [1]) [%] | EC50 (κ opioid receptor [2]) [nM] | Emax (κ opioid receptor [2]) [%] | EC50 (μ-opioid receptors [3]) [nM] | Emax (μ-opioid receptors [3]; relative to DAMGO) [%] | EC50 (κ opioid receptor [4]) [nM] | Emax (κ opioid receptor [4]) [%] | Activity Response μ Emax (%) (μ-opioid receptors [3]; relative to DAMGO) | Activity Response κ Emax (%) (κ opioid receptor [4]; relative to U69,593)
CN1CC[C@]23CC(=O)[C@@H](CC(=O)NCC4CC4)C[C@@]2(O)[C@H]1Cc1ccc(O)cc13 [Compound 84, N-(cyclopropylmethyl)-2-((4bR,7R,8aS,9R)-3,8a-dihydroxy-11-methyl-6-oxo-6,7,8,8a,9,10-hexahydro-5H-9,4b-(epiminoethano)phenanthren-7-yl)acetamide] | 1260 ± 301 | 57.7 ± 2.73 | – | – | – | – | – | – | – | –
CN1CC[C@]23CC(=O)[C@@H](CC(=O)NCc4ccccc4)C[C@@]2(O)[C@H]1Cc1ccc(O)cc13 [Compound 83, N-benzyl-2-((4bR,7R,8aS,9R)-3,8a-dihydroxy-11-methyl-6-oxo-6,7,8,8a,9,10-hexahydro-5H-9,4b-(epiminoethano)phenanthren-7-yl)acetamide] | 456 ± 36.7 | 75 ± 5.51 | – | – | – | – | – | – | – | –
O=C1C[C@]23CCN(CC4CC4)[C@H](Cc4ccc(O)cc42)[C@]3(O)C[C@@H]1NS(=O)(=O)c1ccccc1 [Compound 43, N-((4bR,7S,8aS,9R)-11-(cyclopropylmethyl)-3,8a-dihydroxy-6-oxo-6,7,8,8a,9,10-hexahydro-5H-9,4b-(epiminoethano)phenanthren-7-yl)benzenesulfonamide] | > 200000 | 0 | – | – | – | – | – | – | – | –
O=C1C[C@]23CCN(CC4CC4)[C@H](Cc4ccc(O)cc42)[C@]3(O)C[C@@H]1CCO [Compound 54, (4bR,7S,8aS,9R)-11-(cyclopropylmethyl)-3,8a-dihydroxy-7-(2-hydroxyethyl)-8,8a,9,10-tetrahydro-5H-9,4b-(epiminoethano)phenanthren-6(7H)-one] | 14.2 ± 3.39 | 25 ± 2.04 | 5.02 ± 0.14 | 34.3 ± 0.67 | 1.81 ± 0.57 | 26.3 ± 2.33 | 4.82 ± 0.71 | 88.2 ± 2.53 | – | –
CC(C)CC[C@H]1C[C@@]2(O)[C@H]3Cc4ccc(O)cc4[C@@]2(CCN3CC2CC2)CC1=O [Compound 64, (4bR,7S,8aS,9R)-11-(cyclopropylmethyl)-3,8a-dihydroxy-7-isopentyl-8,8a,9,10-tetrahydro-5H-9,4b-(epiminoethano)phenanthren-6(7H)-one] | > 200000 | 1 | 4.3 ± 1.55 | 33 ± 1.73 | > 200000 | 7.5 | 4.71 ± 0.12 | 87.3 ± 2.6 | – | –
CC(C)CNC(=O)C[C@H]1C[C@@]2(O)[C@H]3Cc4ccc(O)cc4[C@@]2(CCN3C)CC1=O [Compound 82, 2-((4bR,7R,8aS,9R)-3,8a-dihydroxy-11-methyl-6-oxo-6,7,8,8a,9,10-hexahydro-5H-9,4b-(epiminoethano)phenanthren-7-yl)-N-isobutylacetamide] | 2330 ± 200 | 67.8 ± 4.01 | – | – | – | – | – | – | – | –
CCS(=O)(=O)N[C@H]1C[C@@]2(O)[C@H]3Cc4ccc(O)cc4[C@@]2(CCN3CC2CC2)CC1=O [Compound 42, N-((4bR,7S,8aS,9R)-11-(cyclopropylmethyl)-3,8a-dihydroxy-6-oxo-6,7,8,8a,9,10-hexahydro-5H-9,4b-(epiminoethano)phenanthren-7-yl)ethanesulfonamide] | > 200000 | 5.5 | – | – | – | – | – | – | – | –
COc1ccc2c(c1)[C@]13CCN(CC4CC4)[C@H](C2)[C@]1(O)C[C@H](NC(=O)C(C)C)C(=O)C3 [Compound 26, N-((4bR,7S,8aS,9R)-11-(cyclopropylmethyl)-8a-hydroxy-3-methoxy-6-oxo-6,7,8,8a,9,10-hexahydro-5H-9,4b-(epiminoethano)phenanthren-7-yl)isobutyramide] | – | – | – | – | 7110 ± 633 | 31 ± 2.08 | 7210 ± 438 | 104 ± 2.52 | – | –
O=C(N[C@H]1C[C@@]2(O)[C@H]3Cc4ccc(O)cc4[C@@]2(CCN3CC2CC2)CC1=O)C1CCCCC1 [Compound 38, N-((4bR,7S,8aS,9R)-11-(cyclopropylmethyl)-3,8a-dihydroxy-6-oxo-6,7,8,8a,9,10-hexahydro-5H-9,4b-(epiminoethano)phenanthren-7-yl)cyclohexanecarboxamide] | – | – | – | – | 10.3 ± 1.72 | 40.3 ± 1.45 | 2.3 ± 0.25 | 95.3 ± 5.21 | – | –
COc1ccc2c(c1)[C@]13CCN(CC4CC4)[C@H](C2)[C@]1(O)C[C@H](OCC(C)C)C(=O)C3 [Compound 23, (4bR,7S,8aS,9R)-11-(cyclopropylmethyl)-8a-hydroxy-7-isobutoxy-3-methoxy-8,8a,9,10-tetrahydro-5H-9,4b-(epiminoethano)phenanthren-6(7H)-one] | – | – | – | – | 2100 ± 735 | – | 5560 ± 481 | – | 15.7 ± 3.71 | 90.0 ± 1.00
O=C(N[C@H]1C[C@@]2(O)[C@H]3Cc4ccc(O)cc4[C@@]2(CCN3CC2CC2)CC1=O)C1CC1 [Compound 34, N-((4bR,7S,8aS,9R)-11-(cyclopropylmethyl)-3,8a-dihydroxy-6-oxo-6,7,8,8a,9,10-hexahydro-5H-9,4b-(epiminoethano)phenanthren-7-yl)cyclopropanecarboxamide] | – | – | – | – | > 200000 | 6.33 ± 2.19 | 12.6 ± 2.04 | 101 ± 3.33 | – | –
CC(=O)N[C@H]1C[C@@]2(O)[C@H]3Cc4ccc(O)cc4[C@@]2(CCN3CC2CC2)CC1=O [Compound 28, N-((4bR,7S,8aS,9R)-11-(cyclopropylmethyl)-3,8a-dihydroxy-6-oxo-6,7,8,8a,9,10-hexahydro-5H-9,4b-(epiminoethano)phenanthren-7-yl)acetamide] | – | – | – | – | > 200000 | 2.5 | 27.1 ± 3.29 | 86.7 ± 2.4 | – | –

— patent publication US9388162B2, “Substituted morphinans and the use thereof” (Purdue Pharma L.P., priority 2012, dated 2016)
